According to ChEMBL document CHEMBL4387741, “Optimization of novel reversible Bruton's tyrosine kinase inhibitors identified using Tethering-fragment-based screens” (Bioorg Med Chem, 2019):

How the values were obtained:
[1] = target: Angiopoietin-1 receptor (Homo sapiens) (UniProt Q02763); assay: Inhibition of wild-type human partial length TIE2 (N804 to T1112 residues) expressed in bacterial expression system at 1 uM by Kinomescan method relative to control
[2] = system: Phosphatidylinositol 4,5-bisphosphate 3-kinase catalytic subunit alpha isoform (Homo sapiens), P42336 [E545A]; assay: Inhibition of human partial length PIK3CA E545A mutant (R108 to N1068 residues) expressed in mammalian expression system at 1 uM by Kinomescan method relative to control
[3] = target: Serine/threonine-protein kinase MAK (Homo sapiens) (UniProt P20794); assay: Inhibition of wild-type human partial length MAK (M1 to P314 residues) expressed in bacterial expression system at 1 uM by Kinomescan method relative to control
[4] = target: Serine/threonine-protein kinase ICK (Homo sapiens) (UniProt Q9UPZ9); assay: Inhibition of wild-type human partial length ICK (M1 to P314 residues) expressed in mammalian expression system at 1 uM by Kinomescan method relative to control
[5] = target: Leukocyte tyrosine kinase receptor (Homo sapiens) (UniProt P29376); assay: Inhibition of wild-type human partial length LTK (P422 to S744 residues) expressed in bacterial expression system at 1 uM by Kinomescan method relative to control
[6] = target: Calcium/calmodulin-dependent protein kinase type 1 (Homo sapiens) (UniProt Q14012); assay: Inhibition of wild-type human full length CAMK1 (M1 to L370 residues) expressed in bacterial expression system at 1 uM by Kinomescan method relative to control
[7] = target: Homeodomain-interacting protein kinase 4 (Homo sapiens) (UniProt Q8NE63); assay: Inhibition of wild-type human partial length HIPK4 (M1 to V384 residues) expressed in bacterial expression system at 1 uM by Kinomescan method relative to control
[8] = target: Mitogen-activated protein kinase 1 (Homo sapiens) (UniProt P28482); assay: Inhibition of wild-type human full length ERK2 (M1 to S360 residues) expressed in bacterial expression system at 1 uM by Kinomescan method relative to control
[9] = target: Dual specificity mitogen-activated protein kinase kinase 1 (Homo sapiens) (UniProt Q02750); assay: Inhibition of wild-type human full length MEK1 (M1 to V393 residues) expressed in mammalian expression system at 1 uM by Kinomescan method relative to control
[10] = target: Serine/threonine-protein kinase tousled-like 2 (Homo sapiens) (UniProt Q86UE8); assay: Inhibition of wild-type human partial length TLK2 (E424 to N749 residues) expressed in bacterial expression system at 1 uM by Kinomescan method relative to control
[11] = Volume of distribution at steady state in Sprague-Dawley rat at 1 mg/kg, iv; type: ADME, organism-based; conditions: in vivo, read-out: Vdss
[12] = target: Serine/threonine-protein kinase 33 (Homo sapiens) (UniProt Q9BYT3); assay: Inhibition of wild-type human full length STK33 (M1 to L514 residues) expressed in bacterial expression system at 10 uM by Kinomescan method relative to control
[13] = target: Casein kinase II subunit alpha' (Homo sapiens) (UniProt P19784); assay: Inhibition of wild-type human full length CSNK2A2 (M1 to R350 residues) expressed in mammalian expression system at 10 uM by Kinomescan method relative to control
[14] = target: Wee1-like protein kinase (Homo sapiens) (UniProt P30291); assay: Inhibition of wild-type human partial length WEE1 (M291 to K575 residues) expressed in bacterial expression system at 10 uM by Kinomescan method relative to control
[15] = target: Serine/threonine-protein kinase NLK (Homo sapiens) (UniProt Q9UBE8); assay: Inhibition of wild-type human full length NLK (M13 to E527 residues) expressed in bacterial expression system at 10 uM by Kinomescan method relative to control
[16] = target: G protein-coupled receptor kinase 4 (Homo sapiens) (UniProt P32298); assay: Inhibition of wild-type human full length GRK4 (M1 to C578 residues) expressed in bacterial expression system at 10 uM by Kinomescan method relative to control
[17] = target: Serine/threonine-protein kinase PRP4 homolog (Homo sapiens) (UniProt Q13523); assay: Inhibition of wild-type human partial length PRP4 (D657 to I1007 residues) expressed in bacterial expression system at 10 uM by Kinomescan method relative to control
[18] = target: Rhodopsin kinase GRK7 (Homo sapiens) (UniProt Q8WTQ7); assay: Inhibition of wild-type human full length GRK7 (M1 to L553 residues) expressed in mammalian expression system at 10 uM by Kinomescan method relative to control
[19] = target: Dual specificity protein kinase TTK (Homo sapiens) (UniProt P33981); assay: Inhibition of wild-type human partial length TTK (N505 to V798 residues) expressed in bacterial expression system at 10 uM by Kinomescan method relative to control
[20] = system: Epidermal growth factor receptor (Homo sapiens), P00533 [L858R]; assay: Inhibition of human partial length EGFR L858R mutant (R669 to V1011 residues) expressed in bacterial expression system at 10 uM by Kinomescan method relative to control
[21] = target: Casein kinase I isoform alpha (Homo sapiens) (UniProt P48729); assay: Inhibition of wild-type human partial length CSNK1A1 (M1 to L450 residues) expressed in mammalian expression system at 10 uM by Kinomescan method relative to control
[22] = target: Serine/threonine-protein kinase STK11 (Homo sapiens) (UniProt Q15831); assay: Inhibition of wild-type human full length LKB1 (M1 to Q433 residues) expressed in bacterial expression system at 10 uM by Kinomescan method relative to control
[23] = target: Phosphatidylinositol 5-phosphate 4-kinase type-2 beta (Homo sapiens) (UniProt P78356); assay: Inhibition of wild-type human full length PIP5K2B (M1 to T416 residues) expressed in bacterial expression system at 10 uM by Kinomescan method relative to control
[24] = target: Serine/threonine-protein kinase Nek10 (Homo sapiens) (UniProt Q6ZWH5); assay: Inhibition of wild-type human partial length NEK10 (L488 to R809 residues) expressed in mammalian expression system at 10 uM by Kinomescan method relative to control
[25] = target: Glycogen synthase kinase-3 beta (Homo sapiens) (UniProt P49841); assay: Inhibition of wild-type human full length GSK3B (M1 to T433 residues) expressed in mammalian expression system at 10 uM by Kinomescan method relative to control
[26] = target: Cyclin-dependent kinase 13 (Homo sapiens) (UniProt Q14004); assay: Inhibition of wild-type human partial length CDC2L5 (H675 to S1054 residues) expressed in mammalian expression system at 10 uM by Kinomescan method relative to control
[27] = target: Dual serine/threonine and tyrosine protein kinase (Homo sapiens) (UniProt Q6XUX3); assay: Inhibition of wild-type human full length RIPK5 (M1 to T929 residues) expressed in mammalian expression system at 10 uM by Kinomescan method relative to control

Work on `O=C(Nc1cccc([C@@H]2CN(c3ncnc4[nH]ccc34)CCN2CCO)c1)Nc1c(F)cccc1N1CCCC1` yielded an inhibition [1] of 99%, an inhibition [2] of 65% and an inhibition [3] of 94%. It also gave an inhibition [4] of 100%, an inhibition [5] of 100% and an inhibition [6] of 95%. The inhibition [7] was 96%, the inhibition [8] was 90% and the inhibition [9] was 68%. It also gave an inhibition [10] of 99% and a Vd [11] of 0.21 L/kg.

`O=C(Nc1cccc([C@H]2CCCN(c3ncnc4[nH]ccc34)C2)c1)Nc1ccccc1N1CCCC1` showed an inhibition [12] of 100%, an inhibition [13] of 91% and an inhibition [14] of 100%. The inhibition [15] was 96%, the inhibition [16] was 7.4% and the inhibition [17] was 17%. For the same compound, the inhibition [18] was 80%, the inhibition [19] was 78% and the inhibition [20] was 76%. It also gave an inhibition [21] of 62%, an inhibition [22] of 25% and an inhibition [23] of 4.7%. The inhibition [24] was 4.3%, the inhibition [25] was 77% and the inhibition [26] was 97%. It also gave an inhibition [27] of 49%.
